{
  "source": "patent US20050197350A1",
  "about": "“Novel quinoline, tetrahydroquinazoline, and pyrimidine derivatives and methods of treatment related to the use thereof” (TAISHO PHARMACEUTICAL CO., LTD., priority 2003, published 2005)",
  "data": [
    {"test_system": "MCH receptors", "assay": "MCH receptor activity class (method not given)", "conditions": "MCH receptor; class by percent of control at 10^-7 M or IC50", "values": [
      {"smiles": "CN(C)c1cc(N[C@H]2CC[C@@H](CNC(=O)c3cc(C(F)(F)F)cc(C(F)(F)F)c3)CC2)nc2ccccc12", "note": "[compound 205, N-[(cis-4-{[4-(dimethylamino)quinolin-2-yl]amino}cyclohexyl)methyl]-3,5-bis(trifluoromethyl)benzamide]", "class": "3 (Class 3 The value of percent of control at 10^−7 M was more than 60% or the value of IC50 was more than 200 nM.)"},
      {"smiles": "CN(C)c1cc(N[C@H]2CC[C@@H](CNC(=O)/C=C/c3ccc([N+](=O)[O-])cc3)CC2)nc2ccccc12", "note": "[compound 206]", "class": "2 (Class 2: The value of percent of control at 10^−7 M was from 40% to 60% or the value of IC′50 was from 50 nM to 200 nM.)"},
      {"smiles": "CN(C)c1cc(N[C@H]2CC[C@@H](CNC(=O)Cc3ccccc3Br)CC2)nc2ccccc12", "note": "[compound 207]", "class": "3 (Class 3 The value of percent of control at 10^−7 M was more than 60% or the value of IC50 was more than 200 nM.)"},
      {"smiles": "Cc1cc(C(=O)NC[C@H]2CC[C@@H](Nc3cc(N(C)C)c4ccccc4n3)CC2)ccc1F", "note": "[compound 208, N-[(cis-4-{[4-(dimethylamino)quinolin-2-yl]amino}cyclohexyl)methyl]-4-fluoro-3-methylbenzamide]", "class": "3 (Class 3 The value of percent of control at 10^−7 M was more than 60% or the value of IC50 was more than 200 nM.)"},
      {"smiles": "CN(C)c1cc(N[C@H]2CC[C@@H](CNC(=O)c3ccccc3SC(F)F)CC2)nc2ccccc12", "note": "[compound 209]", "class": "3 (Class 3 The value of percent of control at 10^−7 M was more than 60% or the value of IC50 was more than 200 nM.)"},
      {"smiles": "CN(C)c1cc(N[C@H]2CC[C@@H](CNC(=O)c3cc(Cl)sc3Cl)CC2)nc2ccccc12", "note": "[compound 210]", "class": "3 (Class 3 The value of percent of control at 10^−7 M was more than 60% or the value of IC50 was more than 200 nM.)"},
      {"smiles": "CCCSc1ncccc1C(=O)NC[C@H]1CC[C@@H](Nc2cc(N(C)C)c3ccccc3n2)CC1", "note": "[compound 211]", "class": "3 (Class 3 The value of percent of control at 10^−7 M was more than 60% or the value of IC50 was more than 200 nM.)"},
      {"smiles": "CN(C)c1cc(N[C@H]2CC[C@@H](CNC(=O)c3cc(C(C)(C)C)nn3Cc3ccccc3)CC2)nc2ccccc12", "note": "[compound 212]", "class": "3 (Class 3 The value of percent of control at 10^−7 M was more than 60% or the value of IC50 was more than 200 nM.)"},
      {"smiles": "CN(C)c1cc(N[C@H]2CC[C@@H](CNC(=O)c3cc(C(C)(C)C)nn3C)CC2)nc2ccccc12", "note": "[compound 213]", "class": "3 (Class 3 The value of percent of control at 10^−7 M was more than 60% or the value of IC50 was more than 200 nM.)"},
      {"smiles": "C/C(=C\\c1ccccc1)C(=O)NC[C@H]1CC[C@@H](Nc2cc(N(C)C)c3ccccc3n2)CC1", "note": "[compound 214]", "class": "3 (Class 3 The value of percent of control at 10^−7 M was more than 60% or the value of IC50 was more than 200 nM.)"},
      {"smiles": "CN(C)c1cc(N[C@H]2CC[C@@H](CNC(=O)c3cncc(Br)c3)CC2)nc2ccccc12", "note": "[compound 215]", "class": "3 (Class 3 The value of percent of control at 10^−7 M was more than 60% or the value of IC50 was more than 200 nM.)"}
    ]},
    {"test_system": "MCH receptors", "assay": "MCH receptor activity class (method not given)", "conditions": "class by percent of control at 10^-7 M or IC50", "values": [
      {"smiles": "CN(C)c1cc(N[C@H]2CC[C@@H](CNC(=O)Cc3cccc4ccccc34)CC2)nc2ccccc12", "note": "[compound 216]", "class": "3 (Class 3 The value of percent of control at 10^−7 M was more than 60% or the value of IC50 was more than 200 nM.)"},
      {"smiles": "Cc1cc(C(=O)NC[C@H]2CC[C@@H](Nc3cc(N(C)C)c4ccccc4n3)CC2)nn1C(C)(C)C", "note": "[compound 217]", "class": "3 (Class 3 The value of percent of control at 10^−7 M was more than 60% or the value of IC50 was more than 200 nM.)"},
      {"smiles": "CN(C)c1cc(N[C@H]2CC[C@@H](CNC(=O)c3csc4ccccc34)CC2)nc2ccccc12", "note": "[compound 218]", "class": "3 (Class 3 The value of percent of control at 10^−7 M was more than 60% or the value of IC50 was more than 200 nM.)"},
      {"smiles": "CN(C)c1cc(N[C@H]2CC[C@@H](CNC(=O)c3ccc(-c4ccccc4)cc3)CC2)nc2ccccc12", "note": "[compound 219]", "class": "3 (Class 3 The value of percent of control at 10^−7 M was more than 60% or the value of IC50 was more than 200 nM.)"},
      {"smiles": "CN(C)c1cc(N[C@H]2CC[C@@H](CNC(=O)c3ccccc3Br)CC2)nc2ccccc12", "note": "[compound 220]", "class": "3 (Class 3 The value of percent of control at 10^−7 M was more than 60% or the value of IC50 was more than 200 nM.)"},
      {"smiles": "CN(C)c1cc(N[C@H]2CC[C@@H](CNC(=O)c3c(Cl)cccc3Cl)CC2)nc2ccccc12", "note": "[compound 221]", "class": "2 (Class 2: The value of percent of control at 10^−7 M was from 40% to 60% or the value of IC′50 was from 50 nM to 200 nM.)"},
      {"smiles": "CN(C)c1cc(N[C@H]2CC[C@@H](CNC(=O)c3ccccc3I)CC2)nc2ccccc12", "note": "[compound 222]", "class": "3 (Class 3 The value of percent of control at 10^−7 M was more than 60% or the value of IC50 was more than 200 nM.)"},
      {"smiles": "Cc1ccccc1C(=O)NC[C@H]1CC[C@@H](Nc2cc(N(C)C)c3ccccc3n2)CC1", "note": "[compound 223]", "class": "3 (Class 3 The value of percent of control at 10^−7 M was more than 60% or the value of IC50 was more than 200 nM.)"},
      {"smiles": "CN(C)c1cc(N[C@H]2CC[C@@H](CNC(=O)c3cccc(Cl)c3Cl)CC2)nc2ccccc12", "note": "[compound 224]", "class": "3 (Class 3 The value of percent of control at 10^−7 M was more than 60% or the value of IC50 was more than 200 nM.)"},
      {"smiles": "CN(C)c1cc(N[C@H]2CC[C@@H](CNC(=O)c3cc(F)ccc3Cl)CC2)nc2ccccc12", "note": "[compound 225]", "class": "3 (Class 3 The value of percent of control at 10^−7 M was more than 60% or the value of IC50 was more than 200 nM.)"},
      {"smiles": "CN(C)c1cc(N[C@H]2CC[C@@H](CNC(=O)c3cccc4c3-c3ccccc3C4=O)CC2)nc2ccccc12", "note": "[compound 226]", "class": "3 (Class 3 The value of percent of control at 10^−7 M was more than 60% or the value of IC50 was more than 200 nM.)"},
      {"smiles": "CN(C)c1cc(N[C@H]2CC[C@@H](CNC(=O)c3c(F)ccc(F)c3F)CC2)nc2ccccc12", "note": "[compound 227]", "class": "3 (Class 3 The value of percent of control at 10^−7 M was more than 60% or the value of IC50 was more than 200 nM.)"},
      {"smiles": "CN(C)c1cc(N[C@H]2CC[C@@H](CNC(=O)c3cccc(F)c3F)CC2)nc2ccccc12", "note": "[compound 228]", "class": "3 (Class 3 The value of percent of control at 10^−7 M was more than 60% or the value of IC50 was more than 200 nM.)"},
      {"smiles": "CN(C)c1cc(N[C@H]2CC[C@@H](CNC(=O)c3c(F)cccc3F)CC2)nc2ccccc12", "note": "[compound 229]", "class": "3 (Class 3 The value of percent of control at 10^−7 M was more than 60% or the value of IC50 was more than 200 nM.)"},
      {"smiles": "CN(C)c1cc(N[C@H]2CC[C@@H](CNC(=O)c3c(F)cccc3C(F)(F)F)CC2)nc2ccccc12", "note": "[compound 230]", "class": "3 (Class 3 The value of percent of control at 10^−7 M was more than 60% or the value of IC50 was more than 200 nM.)"},
      {"smiles": "Cc1cc(C)c(C(=O)NC[C@H]2CC[C@@H](Nc3cc(N(C)C)c4ccccc4n3)CC2)c(C)c1", "note": "[compound 231, N-[(cis-4-{[4-(dimethylamino)quinolin-2-yl]amino}cyclohexyl)methyl]-2,4,6-trimethylbenzamide]", "class": "1 (Class 1: The value of percent of control at 10^−7 M was less than 40% or the value of IC50 was less than 50 nM.)"},
      {"smiles": "CN(C)c1cc(N[C@H]2CC[C@@H](CNC(=O)c3c(F)cccc3Cl)CC2)nc2ccccc12", "note": "[compound 232]", "class": "3 (Class 3 The value of percent of control at 10^−7 M was more than 60% or the value of IC50 was more than 200 nM.)"},
      {"smiles": "CN(C)c1cc(N[C@H]2CC[C@@H](CNC(=O)c3c(Cl)cc(Cl)cc3Cl)CC2)nc2ccccc12", "note": "[compound 233]", "class": "1 (Class 1: The value of percent of control at 10^−7 M was less than 40% or the value of IC50 was less than 50 nM.)"},
      {"smiles": "CN(C)c1cc(N[C@H]2CC[C@@H](CNC(=O)/C=C/c3ccccc3Cl)CC2)nc2ccccc12", "note": "[compound 234, (2E)-3-(2-chlorophenyl)-N-[(cis-4-{[4-(dimethylamino)quinolin-2-yl]amino}cyclohexyl)methyl]acrylamide]", "class": "2 (Class 2: The value of percent of control at 10^−7 M was from 40% to 60% or the value of IC′50 was from 50 nM to 200 nM.)"},
      {"smiles": "Cc1ccc(Cl)c(C(=O)NC[C@H]2CC[C@@H](Nc3cc(N(C)C)c4ccccc4n3)CC2)c1F", "note": "[compound 235]", "class": "3 (Class 3 The value of percent of control at 10^−7 M was more than 60% or the value of IC50 was more than 200 nM.)"},
      {"smiles": "CN(C)c1cc(N[C@H]2CC[C@@H](CNC(=O)c3c(F)ccc(F)c3Cl)CC2)nc2ccccc12", "note": "[compound 236]", "class": "3 (Class 3 The value of percent of control at 10^−7 M was more than 60% or the value of IC50 was more than 200 nM.)"},
      {"smiles": "Cc1cccc(C(=O)NC[C@H]2CC[C@@H](Nc3cc(N(C)C)c4ccccc4n3)CC2)c1C", "note": "[compound 237]", "class": "3 (Class 3 The value of percent of control at 10^−7 M was more than 60% or the value of IC50 was more than 200 nM.)"},
      {"smiles": "COc1cccc(C(=O)N[C@H]2CC[C@@H](Nc3nccc(N(C)C)n3)CC2)c1", "note": "[compound 238, N-(cis-4-{[4-(dimethylamino)pyrimidin-2-yl]amino}cyclohexyl)-3-methoxybenzamide]", "class": "2 (Class 2: The value of percent of control at 10^−7 M was from 40% to 60% or the value of IC′50 was from 50 nM to 200 nM.)"},
      {"smiles": "CN(C)c1ccnc(N[C@H]2CC[C@@H](NC(=O)c3cccc(Br)c3)CC2)n1", "note": "[compound 239]", "class": "1 (Class 1: The value of percent of control at 10^−7 M was less than 40% or the value of IC50 was less than 50 nM.)"},
      {"smiles": "CN(C)c1ccnc(N[C@H]2CC[C@@H](NC(=O)c3ccc(Br)cc3)CC2)n1", "note": "[compound 240]", "class": "3 (Class 3 The value of percent of control at 10^−7 M was more than 60% or the value of IC50 was more than 200 nM.)"},
      {"smiles": "CN(C)c1ccnc(N[C@H]2CC[C@@H](NC(=O)c3ccc4nonc4c3)CC2)n1", "note": "[compound 241, N-(cis-4-{[4-(dimethylamino)pyrimidin-2-yl]amino}cyclohexyl)-2,1,3-benzoxadiazole-5-carboxamide]", "class": "1 (Class 1: The value of percent of control at 10^−7 M was less than 40% or the value of IC50 was less than 50 nM.)"},
      {"smiles": "CN(C)c1ccnc(N[C@H]2CC[C@@H](NC(=O)c3cccc(Cl)c3)CC2)n1", "note": "[compound 242]", "class": "1 (Class 1: The value of percent of control at 10^−7 M was less than 40% or the value of IC50 was less than 50 nM.)"},
      {"smiles": "CN(C)c1ccnc(N[C@H]2CC[C@@H](NC(=O)c3ccc(Cl)cc3)CC2)n1", "note": "[compound 243]", "class": "2 (Class 2: The value of percent of control at 10^−7 M was from 40% to 60% or the value of IC′50 was from 50 nM to 200 nM.)"}
    ]}
  ]
}
